Data: ChEMBL document CHEMBL1151066, “Inhibitors of MMP-1: an examination of P1 C gem-disubstitution in the N-carboxyalkylamine and glutaramide carboxylate series” (Bioorg Med Chem Lett, 1996)

target: T1, Interstitial collagenase (Homo sapiens, UniProt P03956); experiment: Inhibitory activity against Matrix Metallo Proteinase-1 (MMP-1)
T1 sequence (P03956 whole entry): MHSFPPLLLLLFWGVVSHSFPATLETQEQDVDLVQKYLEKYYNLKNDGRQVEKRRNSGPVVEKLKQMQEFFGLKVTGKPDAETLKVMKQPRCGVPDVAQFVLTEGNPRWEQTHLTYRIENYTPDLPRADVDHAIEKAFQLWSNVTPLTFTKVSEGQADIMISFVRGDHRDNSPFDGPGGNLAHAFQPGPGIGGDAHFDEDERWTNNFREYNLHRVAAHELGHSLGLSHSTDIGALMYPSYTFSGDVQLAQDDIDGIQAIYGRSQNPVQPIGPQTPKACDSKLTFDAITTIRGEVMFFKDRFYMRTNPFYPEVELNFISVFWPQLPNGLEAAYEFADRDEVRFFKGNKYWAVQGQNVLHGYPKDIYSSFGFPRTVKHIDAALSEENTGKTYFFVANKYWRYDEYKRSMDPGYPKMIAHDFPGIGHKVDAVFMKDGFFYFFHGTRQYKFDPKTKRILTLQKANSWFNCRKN

Compared with `CNC(=O)[C@H](Cc1ccc(OC)cc1)NC(=O)C1(CC(CCN2C(=O)c3cc4ccccc4cc3C2=O)C(=O)O)CCCC1` (stereo in doubt; form 1), `CNC(=O)[C@H](Cc1ccc(OC)cc1)NC(=O)C1(CC(CCN2C(=O)c3cc4ccccc4cc3C2=O)C(=O)O)CCCCC1` (stereo in doubt; form 2) is 6.7-fold lower in IC50: 940 nM for the first, 140 nM for the second.

First: CNC(=O)[C@H](Cc1ccc(OC)cc1)NC(=O)C1(CC(CCN2C(=O)c3cc4ccccc4cc3C2=O)C(=O)O)CCCC1 (stereo in doubt; form 2)
Second: CNC(=O)[C@H](Cc1ccc(OC)cc1)NC(=O)C1(CC(CCN2C(=O)c3cc4ccccc4cc3C2=O)C(=O)O)CCCCC1 (stereo in doubt; form 1)
The IC50 of the first is 6.8-fold higher: 260 nM for the first, 38 nM for the second. The second is the more potent here.

`CNC(=O)[C@H](Cc1ccc(OC)cc1)NC(=O)[C@H](CC(C)C)N[C@H](CCN1C(=O)c2cc3ccccc3cc2C1=O)C(=O)O` and `CNC(=O)[C@H](Cc1ccc(OC)cc1)NC(=O)[C@H](CC(C)C)C[C@@H](CCN1C(=O)c2cc3ccccc3cc2C1=O)C(=O)O` are the same in IC50: 23 nM for the first, 23 nM for the second.

Compared with `CNC(=O)[C@H](Cc1ccc(OC)cc1)NC(=O)C1(CC(CCN2C(=O)c3ccccc3C2=O)C(=O)O)CCCCC1` (mixture of isomers), `CNC(=O)[C@H](Cc1ccc(OC)cc1)NC(=O)C1(CC(CCN2C(=O)c3ccc(OC)cc3C2=O)C(=O)O)CCCCC1` (mixture of isomers) is 5.6-fold lower in IC50: 3200 nM for the first, 570 nM for the second. The second is the more potent here.

Going from `CCCOc1ccc2c(c1)C(=O)N(CCC(CC1(C(=O)N[C@@H](Cc3ccc(OC)cc3)C(=O)NC)CCCCC1)C(=O)O)C2=O` (mixture of isomers) to `CNC(=O)[C@H](Cc1ccc(OC)cc1)NC(=O)C1(NC(CCN2C(=O)c3cc4ccccc4cc3C2=O)C(=O)O)CCCCC1` (stereo in doubt; form 1), the IC50 rises from 140 nM to 970 nM (6.9-fold). The first is the more potent here.

First: CNC(=O)[C@H](Cc1ccccc1)NC(=O)[C@H](CC(C)C)N[C@H](CCN1C(=O)c2cc3ccccc3cc2C1=O)C(=O)O
Second: CNC(=O)[C@H](Cc1ccc(OC)cc1)NC(=O)C1(NC(CCN2C(=O)c3cc4ccccc4cc3C2=O)C(=O)O)CCCCC1 (stereo in doubt; form 2)
The IC50 of the first is 2.6-fold lower: 34 nM for the first, 90 nM for the second.

First: O=C(O)C(CCN1C(=O)c2cc3ccccc3cc2C1=O)CC1(C(=O)NCc2ccccc2)CCCCC1 (racemic)
Second: O=C(O)C(CCN1C(=O)c2cc3ccccc3cc2C1=O)CC1(C(=O)NCCN2CCOCC2)CCCCC1 (racemic)
The IC50 of the first is 4-fold lower: 3000 nM for the first, 12000 nM for the second.

With `CCC(CC1(C(=O)N[C@@H](Cc2ccc(OC)cc2)C(=O)NC)CCCCC1)C(=O)O` (mixture of isomers) the IC50 was > 30000 nM.
